Test results taken from patent publication US10669255B2, “Pyrrole derivatives” (HUA MEDICINE (SHANGHAI) LTD., priority 2016, dated 2020).
pIC50: −log10 of the molar value.

The compounds below were run against T1, recombinant rat mGluR5 (Rattus norvegicus, UniProt P31424) (assay: Functional calcium flux assay (FLIPR), antagonism of glutamate-evoked [Ca2+]i increase). Conditions: HEK293 cells stably expressing recombinant rat mGluR5; Fluo-8; 15 min incubation of test compound, then submaximal glutamate.
T1 construct: expressed in transfected cells
Assay type: cell-based
Procedure: Functional Calcium Flux Assay Methodology
For functional assays, HEK293 cells stably expressing recombinant rat mGluR5 were seeded in 384-well plates and dye loaded using Fluo-8. Cells were then washed to remove the un-incorporated dye. Antagonist evaluation was performed following a 15 min incubation of the test compound followed by the addition of submaximal concentration of glutamate. Intracellular calcium ([Ca^2+]i) measurements were performed using a fluorometric imaging plate reader (FLIPR, Molecular Devices). The glutamate-evoked increase in [Ca^2+]i in the presence of the test compounds was compared to the response to glutamate alone (the positive control). Antagonist inhibition curves were fitted with a 4-parameter logistic equation giving IC50 values, and Hill coefficients using an iterative nonlinear curve fitting algorithm.
The tables below provide IC50 data in this assay. In the activity column, A=IC50 >1,000 and ≤5,000 nM; B=IC50>500 and ≤1,000 nM and C=IC50≤500 nM.

T1 sequence (P31424 21-1203): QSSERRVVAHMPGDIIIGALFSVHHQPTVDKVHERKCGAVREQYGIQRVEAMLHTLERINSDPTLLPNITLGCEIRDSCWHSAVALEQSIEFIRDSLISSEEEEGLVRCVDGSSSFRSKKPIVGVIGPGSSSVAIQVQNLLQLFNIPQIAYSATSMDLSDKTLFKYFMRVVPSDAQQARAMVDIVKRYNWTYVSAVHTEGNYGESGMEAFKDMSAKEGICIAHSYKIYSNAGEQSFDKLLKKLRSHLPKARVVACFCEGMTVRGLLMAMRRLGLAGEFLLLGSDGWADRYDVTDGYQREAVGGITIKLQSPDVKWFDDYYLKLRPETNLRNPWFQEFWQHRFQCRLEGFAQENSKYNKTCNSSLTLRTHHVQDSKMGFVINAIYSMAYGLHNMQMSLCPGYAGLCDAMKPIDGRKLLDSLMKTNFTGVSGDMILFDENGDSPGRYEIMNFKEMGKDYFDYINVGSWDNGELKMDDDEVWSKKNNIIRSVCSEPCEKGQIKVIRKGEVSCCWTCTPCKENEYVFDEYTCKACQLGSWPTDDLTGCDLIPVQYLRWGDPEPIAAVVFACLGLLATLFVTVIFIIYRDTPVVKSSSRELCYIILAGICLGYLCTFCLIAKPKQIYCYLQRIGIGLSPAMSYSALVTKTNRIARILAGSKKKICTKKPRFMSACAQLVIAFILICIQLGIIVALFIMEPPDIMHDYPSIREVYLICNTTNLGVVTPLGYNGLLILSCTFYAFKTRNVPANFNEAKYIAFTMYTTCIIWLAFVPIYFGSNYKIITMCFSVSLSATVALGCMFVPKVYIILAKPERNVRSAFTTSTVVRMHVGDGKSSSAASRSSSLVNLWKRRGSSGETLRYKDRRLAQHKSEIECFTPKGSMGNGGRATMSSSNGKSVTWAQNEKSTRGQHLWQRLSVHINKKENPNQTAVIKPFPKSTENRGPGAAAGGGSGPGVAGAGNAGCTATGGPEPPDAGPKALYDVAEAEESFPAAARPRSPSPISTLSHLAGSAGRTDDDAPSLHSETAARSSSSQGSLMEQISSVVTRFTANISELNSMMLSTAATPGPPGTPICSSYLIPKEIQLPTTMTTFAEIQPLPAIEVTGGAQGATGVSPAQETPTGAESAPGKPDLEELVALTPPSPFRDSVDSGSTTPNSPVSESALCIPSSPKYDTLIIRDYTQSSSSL

| pIC50 | Compound |
| --- | --- |
| ≥ 6.30 | N#Cc1cc(I)cc(-n2cc(C#Cc3ccccn3)c3ccccc32)c1 [Example Compound 1, 3-iodo-5-(3-(pyridin-2-ylethynyl)-1H-indol-1-yl)benzonitrile] |
| ≥ 6.30 | N#Cc1cc(F)cc(-n2cc(C#Cc3ccccn3)c3ccccc32)c1 [Example Compound 2, 3-fluoro-5-(3-(pyridin-2-ylethynyl)-1H-indol-1-yl)benzonitrile] |
| ≥ 6.30 | Fc1ccc(-n2cc(C#Cc3ccccn3)c3ccccc32)cc1 [Example Compound 3, 1-(4-fluorophenyl)-3-(pyridin-2-ylethynyl)-1H-indole] |
| ≥ 6.30 | Fc1ccc(-n2ccc(C#Cc3ccccc3)c2)cc1 [Example Compound 7, 1-(4-fluorophenyl)-3-(phenylethynyl)-1H-pyrrole] |
| ≥ 6.30 | Fc1ccc(-n2cc(C#Cc3ncccn3)c3ccccc32)cc1 [Example Compound 4, 1-(4-fluorophenyl)-3-(pyrimidin-2-ylethynyl)-1H-indole] |
| ≥ 6.30 | N#Cc1cc(F)cc(-n2cc(F)c(C#Cc3ccccn3)c2)c1 [Example Compound 5, 3-fluoro-5-(3-fluoro-4-(pyridin-2-ylethynyl)-1H-pyrrol-1-yl)benzonitrile] |
| ≥ 6.30 | Cc1cc(C#Cc2ccccn2)c(C)n1-c1ccc(OC(F)(F)F)cc1 [Example Compound 8, 2-((2,5-dimethyl-1-(4-(trifluoromethoxy)phenyl)-1H-pyrrol-3-yl)ethynyl)pyridine] |
| 5.30 to 6.00 | Cc1cc(C#Cc2ccncc2)c(C)n1-c1ccc(OC(F)(F)F)cc1 [Example Compound 10, 4-((2,5-dimethyl-1-(4-(trifluoromethoxy)phenyl)-1H-pyrrol-3-yl)ethynyl)pyridine] |
| ≥ 6.30 | N#Cc1cc(F)cc(-n2ccc(C#Cc3ccccn3)c2)c1 [Example Compound 6, 3-fluoro-5-(3-(pyridin-2-ylethynyl)-1H-pyrrol-1-yl)benzonitrile] |
| ≥ 6.30 | Cc1cc(C#Cc2ncccn2)c(C)n1-c1ccc(OC(F)(F)F)cc1 [Example Compound 9, 2-((2,5-dimethyl-1-(4-(trifluoromethoxy)phenyl)-1H-pyrrol-3-yl)ethynyl)pyrimidine] |
